Measurements: patent publication US20240343747A1, “Heteroaryl compounds as inhibitors of TYK2, composition and application thereof” (Accro Bioscience (HK) Limited, priority 2021, published 2024)
pKd: −log10 of the molar value.

Assays:
TYK2 = TYK2 (Mus musculus (Mouse), UniProt Q9R117); experiment: Luciferase assay in L929 ISRE cells stimulated with IFN-α; type: cell-based; details: IFN-α 100 ng/mL; for inhibition at 0.1 µM: 100 nM, read-out: Inhibitory activity % (100 nM); for inhibition at 1 µM: 1000 nM, read-out: Inhibitory activity % (1000 nM); for inhibition at 0.01 µM: 10 nM, read-out: Inhibitory activity % (10 nM); for inhibition at 0.05 µM: 50 nM, read-out: Inhibitory activity % (50 nM); for inhibition at 0.2 µM: 200 nM, read-out: Inhibitory activity % (200 nM)
Chain of TYK2 (Q9R117 whole entry): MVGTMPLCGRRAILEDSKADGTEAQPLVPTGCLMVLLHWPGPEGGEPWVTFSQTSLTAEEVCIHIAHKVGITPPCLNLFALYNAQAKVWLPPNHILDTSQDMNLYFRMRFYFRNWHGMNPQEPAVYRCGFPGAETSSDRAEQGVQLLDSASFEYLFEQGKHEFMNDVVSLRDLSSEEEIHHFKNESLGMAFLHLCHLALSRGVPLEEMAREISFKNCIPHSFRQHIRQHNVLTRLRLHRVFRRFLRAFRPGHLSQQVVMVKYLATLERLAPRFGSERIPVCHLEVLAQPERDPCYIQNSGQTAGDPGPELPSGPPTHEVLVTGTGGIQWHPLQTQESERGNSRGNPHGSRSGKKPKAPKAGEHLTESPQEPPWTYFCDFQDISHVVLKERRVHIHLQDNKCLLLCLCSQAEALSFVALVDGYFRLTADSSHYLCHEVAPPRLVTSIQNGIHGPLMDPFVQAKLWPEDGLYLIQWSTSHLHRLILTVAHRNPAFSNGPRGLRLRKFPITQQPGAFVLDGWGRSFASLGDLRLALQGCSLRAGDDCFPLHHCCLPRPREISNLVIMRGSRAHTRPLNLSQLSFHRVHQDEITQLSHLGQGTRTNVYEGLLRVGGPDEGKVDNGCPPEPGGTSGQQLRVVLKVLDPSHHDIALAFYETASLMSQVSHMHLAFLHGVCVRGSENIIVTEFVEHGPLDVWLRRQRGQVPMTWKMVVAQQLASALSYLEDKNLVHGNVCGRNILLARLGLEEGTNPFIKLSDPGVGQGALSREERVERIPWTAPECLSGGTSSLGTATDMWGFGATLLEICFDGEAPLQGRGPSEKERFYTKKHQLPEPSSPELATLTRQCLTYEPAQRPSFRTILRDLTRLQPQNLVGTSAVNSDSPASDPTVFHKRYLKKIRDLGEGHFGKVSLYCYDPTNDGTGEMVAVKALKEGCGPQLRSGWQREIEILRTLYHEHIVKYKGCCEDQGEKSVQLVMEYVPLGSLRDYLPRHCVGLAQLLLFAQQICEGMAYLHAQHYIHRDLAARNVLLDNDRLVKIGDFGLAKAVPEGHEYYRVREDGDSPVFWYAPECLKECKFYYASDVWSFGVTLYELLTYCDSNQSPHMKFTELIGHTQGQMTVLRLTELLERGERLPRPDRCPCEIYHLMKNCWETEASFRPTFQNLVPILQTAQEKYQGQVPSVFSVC
Method: • 1. L929 ISRE cells (5000 cells/well) were seeded on 96-well plates and incubated overnight at room temperature; • 2. The cells were pretreated by adding different concentrations (10 nM, 50 nM, 100 nM, 200 nM or 1000 nM) of the test compounds for 2 hours; • 3. Added IFN-α (100 ng/mL) to stimulate cells for 6 hours; • 4. Removed the upper medium, add PBS (100 μL) and washed, then removed PBS; • 5. Added PLB lysis solution (50 μL) to each well, shook the well for 15 minutes; • 6. Transferred PLB lysis solution (30 μL) to a new 96-well whiteboard, added LAR II reagent (LAR II), then quickly read the […]; • 7. Added Stop & Glo reagent (30 μL), then read the 450 nm OD value using the plate washer. • 8. The final results in Table 3 were the OD value in step 6/OD value in step 7.

TYK2 JH2 = TYK2 JH2 (Homo sapiens (Human), UniProt P29597); experiment: Competitive binding assay (kinase-tagged phage, qPCR), TYK2 JH2
Chain of TYK2 JH2 (P29597 589-875): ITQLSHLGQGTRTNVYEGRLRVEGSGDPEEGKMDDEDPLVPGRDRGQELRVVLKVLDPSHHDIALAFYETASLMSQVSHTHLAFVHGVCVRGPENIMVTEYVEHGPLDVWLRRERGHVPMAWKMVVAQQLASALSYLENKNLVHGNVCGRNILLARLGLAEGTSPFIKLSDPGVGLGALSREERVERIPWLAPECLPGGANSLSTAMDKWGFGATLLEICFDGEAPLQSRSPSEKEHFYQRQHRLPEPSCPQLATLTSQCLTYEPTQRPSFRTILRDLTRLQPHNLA
Method: For most assays, kinase-tagged T7 phage strains were prepared in an E. coli host derived from the BL21 strain. E. coli were grown to log-phase and infected with T7 phage and incubated with shaking at 32° C. until lysis. The lysates were centrifuged and filtered to remove cell debris. The remaining kinases were produced in HEK-293 cells and subsequently tagged with DNA for qPCR detection. Streptavidin coated magnetic beads were treated with biotinylated small molecule ligands for 30 minutes at room temperature to generate affinity resins for kinase assays. The liganded beads were blocked with excess biotin and washed with blocking buffer (SeaBlock (Pierce), 1% BSA, 0.05% Tween 20, 1 mM DTT) to remove unbound ligand and to reduce non-specific binding. […] Test compounds were prepared as 111X stocks in 100% DMSO. Dissociation constants (Kds) were determined using an 11-point 3-fold compound dilution series with three DMSO control points. All compounds for Kd measurements are distributed by acoustic transfer (non-contact dispensing) in 100% DMSO. The compounds were then diluted directly into the assays such that the final concentration of DMSO was 0.9%. All reactions performed in polypropylene 384-well plate. Each was a final volume of 0.02 ml. The assay plates were incubated at room temperature with shaking for 1 hour and the affinity beads were washed with wash buffer (1×PBS, 0.05% Tween 20). The beads were then re-suspended in elution buffer (1×PBS, 0.05% Tween 20, 0.5 μM nonbiotinylated affinity ligand) and incubated at room temperature with shaking for 30 minutes. The kinase concentration in the eluates was measured by qPCR.
An 11-point 3-fold serial dilution of each test compound was prepared in 100% DMSO at 100× final test concentration and subsequently diluted to 1× in the assay (final DMSO concentration=1%). Most Kds were determined using a compound top concentration=30,000 nM. If the initial Kd determined was <0.5 nM (the lowest concentration tested), the measurement was repeated with a serial dilution starting at a lower top concentration.
Binding constants (Kds) were calculated with a standard dose-response curve using the Hill equation: […]
The Hill Slope was set to −1.
Curves were fitted using a non-linear least square fit with the Levenberg-Marquardt algorithm.

inhibition at 1 µM (TYK2) [%]	SMILES	also measured
49	CCC(=O)c1cnc(NC(=O)C2CC2)cc1Nc1cccc(-c2ccc(P(C)(C)=O)nc2)c1OC [Compound B21]	inhibition at 0.1 µM (TYK2): 6%
20	CCC(=O)c1cnc(NC(=O)C2CC2)cc1Nc1cccc(-c2cc(P(C)(C)=O)n(C)n2)c1C#N [Compound B20]	inhibition at 0.01 µM (TYK2): 7%; inhibition at 0.1 µM (TYK2): 8%
0	CCC(=O)c1cnc(NC(=O)C2CC2)cc1Nc1cccc(-c2nc(P(C)(C)=O)ns2)c1OC [Compound B1, N-(4-((3-(3-(dimethylphosphoryl)-1,2,4-thiadiazol-5-yl)-2-methoxyphenyl)amino)-5-propionylpyridin-2-yl)cyclopropanecarboxamide]	inhibition at 0.01 µM (TYK2): 0%; inhibition at 0.1 µM (TYK2): 0%
0	CCC(=O)c1cnc(NC(=O)C2CC2)cc1Nc1cccc(-c2cc(P(C)(C)=O)n(C)n2)c1F [Compound B12]	
38	CCC(=O)c1cnc(NC(=O)C2CC2)cc1Nc1cccc(-c2cc(P(C)(C)=O)cs2)c1OC [Compound B27]	
27	CCC(=O)c1cnc(NC(=O)C2CC2)cc1Nc1cccc(-c2cc(P(C)(C)=O)n(C)n2)c1C [Compound B14]	
40	CCC(=O)c1cnc(NC(=O)C2CC2)cc1Nc1cccc(-c2cc(P(C)(C)=O)nn2C)c1OC [Compound B9]	
50	CCC(=O)c1cnc(NC(=O)C2CC2)cc1Nc1cccc(-c2ccccc2P(C)(C)=O)c1OC [Compound B10]	
33	CCC(=O)c1cnc(NC(=O)C2CC2)cc1Nc1cccc(-c2ccc(P(C)(C)=O)nn2)c1OC [Compound B8]	
36	CCC(=O)c1cnc(NC(=O)C2CC2)cc1Nc1cccc(-c2nc(P(C)(C)=O)cs2)c1OC [Compound B6]	
93	CCC(=O)c1cnc(NC(=O)C2CC2)cc1Nc1cccc(-c2cc(P(=O)(CC)CC)n(C)n2)c1OC [Compound B24]	inhibition at 0.1 µM (TYK2): 31%; pKd (TYK2 JH2): 10.52
46	CCC(=O)c1cnc(NC(=O)C2CC2)cc1Nc1cccc(-c2cccc(P(C)(C)=O)c2)c1OC [Compound B7]	
55	CCC(=O)c1cnc(NC(=O)C2CC2)cc1Nc1cccc(-c2cc(P(C)(C)=O)n(C3CC3)n2)c1OC [Compound B16]	inhibition at 0.01 µM (TYK2): 35%; inhibition at 0.1 µM (TYK2): 38%

Further lines, the compound ahead of its results:

SMILES	inhibition at 1 µM (TYK2) [%]	also measured
CNC(=O)c1nnc(NC(=O)C2CC2)cc1Nc1cccc(-c2cc(P(=O)(C3CC3)C3CC3)n(C)n2)c1OC [Compound B44]	81	
[2H]C([2H])([2H])NC(=O)c1nnc(NC(=O)C2CC2)cc1Nc1cccc(-c2cc(P(C)(C)=O)n(C)n2)c1OC [Compound B42]	65	
CCC(=O)c1cnc(NC(=O)C2CC2)cc1Nc1cccc(-c2cc(P3(=O)CCCC3)n(C)n2)c1OC [Compound B30]	75	
CCC(=O)c1nnc(NC(=O)C2CC2)cc1Nc1cccc(-c2cc(P(C)(C)=O)n(CC)n2)c1OC [Compound B31]	26	
CNC(=O)c1nnc(NC(=O)C2CC2)cc1Nc1cccc(-c2ncc(P(C)(C)=O)cn2)c1OC [Compound B40]	58	inhibition at 0.1 µM (TYK2): 33%
CCC(=O)c1nnc(NC(=O)C2CC2)cc1Nc1cccc(-c2cc(P(C)(C)=O)n(C)n2)c1OC [Compound B18, N-(5-((3-(5-(dimethylphosphoryl)-1-methyl-1H-pyrazol-3-yl)-2-methoxyphenyl)amino)-6-propionylpyridazin-3-yl)cyclopropanecarboxamide]	42	
CCC(=O)c1cnc(NC(=O)C2CC2)cc1Nc1cc(F)cc(-c2cc(P(=O)(CC)CC)n(C)n2)c1OC [Compound B32]	88	pKd (TYK2 JH2): 10.60
CCP(=O)(CC)c1cc(-c2cccc(Nc3cc(NC(=O)C4CC4)nnc3C(=O)NC)c2OC)nn1C [Compound B43]	84	
CCC(=O)c1nnc(NC(=O)C2CC2)cc1Nc1cc(F)cc(-c2cc(P(C)(C)=O)n(C)n2)c1OC [Compound B25]	13	
CCC(=O)c1cnc(NC(=O)C2CC2)cc1Nc1cc(F)cc(-c2cc(P(C)(C)=O)n(C)n2)c1OC [Compound B17]	67	inhibition at 0.01 µM (TYK2): 25%; inhibition at 0.1 µM (TYK2): 45%
CNC(=O)c1nnc(NC(=O)C2CC2)cc1Nc1cccc(-c2cc(P(C)(C)=O)n(C)n2)c1OC [Compound B39]	80	inhibition at 0.1 µM (TYK2): 34%; pKd (TYK2 JH2): 11.19
[2H]C([2H])([2H])NC(=O)c1nnc(NC(=O)C2CC2)cc1Nc1cccc(-c2cc(P(=O)(CC)CC)n(C)n2)c1OC [Compound B45]	95	inhibition at 0.05 µM (TYK2): 44%; inhibition at 0.2 µM (TYK2): 83%
CCC(=O)c1cnc(NC(=O)C2CC2)cc1Nc1nccc(-c2cc(P(=O)(CC)CC)n(C)n2)c1OC [Compound B29]	93	pKd (TYK2 JH2): 11.00
[2H]C([2H])([2H])n1nc(-c2ccnc(Nc3cc(NC(=O)C4CC4)ncc3C(=O)CC)c2OC)cc1P(C)(C)=O [Compound B35]	60	pKd (TYK2 JH2): 10.60
CCC(=O)c1cnc(NC(=O)C2CC2)cc1Nc1ncnc(-c2cc(P(=O)(C3CC3)C3CC3)n(C)n2)c1OC [Compound B46, N-(4-((6-(5-(dicyclopropylphosphoryl)-1-methyl-1H-pyrazol-3-yl)-5-methoxypyrimidin-4-yl)amino)-5-propionylpyridin-2-yl)cyclopropanecarboxamide]	96	inhibition at 0.05 µM (TYK2): 70%; inhibition at 0.2 µM (TYK2): 88%
CCC(=O)c1cnc(NC(=O)C2CC2)cc1Nc1nccc(-c2ncc(P(=O)(CC)CC)cn2)c1OC [Compound B36]	75	
CCC(=O)c1nnc(NC(=O)C2CC2)cc1Nc1cccc(-c2ccc(P(C)(C)=O)cn2)c1OC [Compound B28]	35	
CCC(=O)c1cnc(NC(=O)C2CC2)cc1Nc1cc(F)cc(-c2ncc(P(C)(C)=O)cn2)c1OC [Compound B23]	46	inhibition at 0.1 µM (TYK2): 8%
[2H]C([2H])([2H])n1nc(-c2cccc(Nc3cc(NC(=O)C4CC4)ncc3C(=O)CC)c2OC)cc1P(=O)(CC)CC [Compound B34]	87	pKd (TYK2 JH2): 10.36
CCC(=O)c1cnc(NC(=O)C2CC2)cc1Nc1nccc(-c2cc(P(C)(C)=O)n(C)n2)c1OC [Compound B19, N-(4-((4-(5-(dimethylphosphoryl)-1-methyl-1H-pyrazol-3-yl)-3-methoxypyridin-2-yl)amino)-5-propionylpyridin-2-yl)cyclopropanecarboxamide]	88	inhibition at 0.01 µM (TYK2): 41%; inhibition at 0.1 µM (TYK2): 74%; pKd (TYK2 JH2): 10.12
[2H]C([2H])([2H])n1nc(-c2ccnc(Nc3cc(NC(=O)C4CC4)ncc3C(=O)CC)c2OC)cc1P(=O)(CC)CC [Compound B33]	86	pKd (TYK2 JH2): 10.25
CCC(=O)c1cnc(NC(=O)C2CC2)cc1Nc1cccc(-c2cc(P(C)(C)=O)n(C)n2)c1 [Compound B15]	45	
